Tested on: P12-Ichikawa
Experiment: cell viability relative to DMSO control; higher = less cytotoxic
Conditions: 48 h
How it was run: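 Viability was expressed as a per-plate percentage of DMSO wells, with cell-free wells as background. Leukemia cells (NOMO1 or SEM at 500 cells/well, P12-Ichikawa at 1000 cells/well) were adapted for at least four passages in each medium and seeded in 1536-well plates (5 μl). Library compounds in DMSO were pin-dosed over an 11-point threefold series from 47 μM to 0.79 nM, and CellTiter-Glo One luminescence was read after 48 h at 37°C.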

[1] = HPLM + 10% dialyzed FBS, 0.000781 µM
[2] = HPLM + 10% dialyzed FBS, 0.00234 µM
[3] = HPLM + 10% dialyzed FBS, 0.00702 µM
[4] = HPLM + 10% dialyzed FBS, 0.0211 µM
[5] = HPLM + 10% dialyzed FBS, 0.0632 µM
[6] = HPLM + 10% dialyzed FBS, 0.19 µM
[7] = HPLM + 10% dialyzed FBS, 0.569 µM
[8] = HPLM + 10% dialyzed FBS, 1.71 µM
[9] = HPLM + 10% dialyzed FBS, 5.12 µM
[10] = HPLM + 10% dialyzed FBS, 15.4 µM
[11] = HPLM + 10% dialyzed FBS, 46.1 µM
[12] = RPMI 5 mM glucose + 10% FBS, 0.000781 µM
[13] = RPMI 5 mM glucose + 10% FBS, 0.00234 µM
[14] = RPMI 5 mM glucose + 10% FBS, 0.00702 µM
[15] = RPMI 5 mM glucose + 10% FBS, 0.0211 µM
[16] = RPMI 5 mM glucose + 10% FBS, 0.0632 µM
[17] = RPMI 5 mM glucose + 10% FBS, 0.19 µM
[18] = RPMI 5 mM glucose + 10% FBS, 0.569 µM
[19] = RPMI 5 mM glucose + 10% FBS, 1.71 µM
[20] = RPMI 5 mM glucose + 10% FBS, 5.12 µM
[21] = RPMI 5 mM glucose + 10% FBS, 15.4 µM
[22] = RPMI 5 mM glucose + 10% FBS, 46.1 µM
[23] = RPMI 5 mM glucose + 10% dialyzed FBS, 0.000781 µM
[24] = RPMI 5 mM glucose + 10% dialyzed FBS, 0.00234 µM
[25] = RPMI 5 mM glucose + 10% dialyzed FBS, 0.00702 µM
[26] = RPMI 5 mM glucose + 10% dialyzed FBS, 0.0211 µM
[27] = RPMI 5 mM glucose + 10% dialyzed FBS, 0.0632 µM
[28] = RPMI 5 mM glucose + 10% dialyzed FBS, 0.19 µM
[29] = RPMI 5 mM glucose + 10% dialyzed FBS, 0.569 µM
[30] = RPMI 5 mM glucose + 10% dialyzed FBS, 1.71 µM
[31] = RPMI 5 mM glucose + 10% dialyzed FBS, 5.12 µM
[32] = RPMI 5 mM glucose + 10% dialyzed FBS, 15.4 µM
[33] = RPMI 5 mM glucose + 10% dialyzed FBS, 46.1 µM

Row | Structure (SMILES) | cell viability [1] | cell viability [2] | cell viability [3] | cell viability [4] | cell viability [5] | cell viability [6] | cell viability [7] | cell viability [8] | cell viability [9] | cell viability [10] | cell viability [11] | cell viability [12] | cell viability [13] | cell viability [14] | cell viability [15] | cell viability [16] | cell viability [17] | cell viability [18] | cell viability [19] | cell viability [20] | cell viability [21] | cell viability [22] | cell viability [23] | cell viability [24] | cell viability [25] | cell viability [26] | cell viability [27] | cell viability [28] | cell viability [29] | cell viability [30] | cell viability [31] | cell viability [32] | cell viability [33]
1 | C[C@@H]1[C@H](O)[C@@H](C)/C=C/C=C/C=C/C=C/C=C/C=C/C=C/[C@H](O[C@@H]2O[C@H](C)[C@@H](O)[C@H](N)[C@@H]2O)C[C@@H]2O[C@](O)(C[C@@H](O)C[C@@H](O)[C@H](O)CC[C@@H](O)C[C@@H](O)CC(=O)O[C@H]1C)C[C@H](O)[C@H]2C(=O)O | 105% | 118% | 117% | 124% | 121% | 126% | 121% | 129% | 119% | 127% | 118% | 119% | 112% | 118% | 110% | 119% | 123% | 134% | 127% | 122% | 125% | 123% | 98.6% | 113% | 119% | 110% | 130% | 116% | 123% | 124% | 124% | 115% | 124%
2 | Cc1cc2c(F)c(Oc3ncnn4cc(OC[C@@H](C)O)c(C)c34)ccc2[nH]1 | 115% | 105% | 102% | 106% | 111% | 106% | 97.2% | 97.5% | 96.9% | 73.9% | 52% | 97.7% | 107% | 101% | 98.1% | 101% | 109% | 104% | 99% | 98.8% | 80.7% | 55.8% | 102% | 100% | 97.3% | 101% | 104% | 102% | 95.7% | 97.8% | 90.1% | 79.3% | 52.3%
3 | COc1cc(OC)c(/C=C/[S+](=O)([O-])Cc2ccc(OC)c(NCC(=O)[O][Na])c2)c(OC)c1 | 125% | 124% | 123% | 120% | 116% | 87.5% | 18.3% | 13.2% | 12.7% | 10.1% | 9.65% | 124% | 120% | 126% | 104% | 118% | 76.9% | 23.1% | 12.5% | 11.1% | 11.4% | 10.8% | 120% | 122% | 120% | 115% | 116% | 50.1% | 24.6% | 13.8% | 12% | 11.3% | 9.89%
4 | O=C(O)c1ccc2c(c1)nc(Nc1cccc(Cl)c1)c1ccncc12 | 106% | 112% | 104% | 104% | 108% | 109% | 104% | 104% | 94.8% | 71.8% | 83.4% | 112% | 111% | 108% | 98.4% | 108% | 108% | 105% | 100% | 84.4% | 58.9% | 70.2% | 99.4% | 94.2% | 93.8% | 97.4% | 100% | 95.9% | 94.5% | 101% | 77.8% | 51.4% | 73%
5 | COc1ccc(C(C)=O)c(O)c1 | 100% | 106% | 115% | 109% | 109% | 114% | 117% | 102% | 107% | 24% | 31% | 115% | 115% | 106% | 120% | 128% | 117% | 114% | 112% | 116% | 22% | 30.6% | 103% | 109% | 109% | 104% | 110% | 114% | 114% | 99.9% | 110% | 25.8% | 25.4%
6 | OC1CCC(Nc2ncc3nc(Nc4c(F)cc(F)cc4F)n([C@@H]4CCOC4)c3n2)CC1 (stereo partly specified) | 111% | 114% | 115% | 117% | 119% | 126% | 127% | 124% | 120% | 117% | 114% | 113% | 123% | 114% | 119% | 127% | 122% | 134% | 127% | 120% | 118% | 123% | 111% | 117% | 114% | 120% | 117% | 117% | 127% | 119% | 126% | 121% | 114%
7 | Cc1cc(C(C)(C)C)c(O)c(C)c1CC1=NCCN1 | 96.4% | 98.3% | 105% | 98.3% | 100% | 104% | 110% | 96.6% | 97.5% | 71.1% | 69.5% | 92.6% | 98.5% | 98.5% | 106% | 99.2% | 96.6% | 99.1% | 93.8% | 103% | 63.7% | 60.5% | 89.8% | 89% | 94.4% | 95.5% | 94.5% | 104% | 97.9% | 105% | 98.7% | 53.8% | 48.9%
